Reference: US10752587B2, “Homobispiperidinyl derivatives as liver X receptor beta agonists, compositions and their use” (Merck Sharp & Dohme Corp., priority 2015, dated 2020)

Experiments:
[1] = biological target: T1, glutathione-S-transferase (GST) tagged LXRbeta LBD (ligand binding domain) (Homo sapiens, UniProt P55055); experiment: LanthaScreen TR-FRET Liver X Receptor Coactivator Assay, co-activator recruitment to LXRbeta LBD; assay type: biochemical; conditions: for Emax: read-out: LXR beta Activity @ max dose (%); for EC50: potency (Inflection Point, IP), co-activator recruitment to LXRbeta LBD, in relation to T0901317, read-out: LXR beta IP
T1 construct: purchased Invitrogen pv4658.pps
T1 sequence (P55055 222-460 limits assumed): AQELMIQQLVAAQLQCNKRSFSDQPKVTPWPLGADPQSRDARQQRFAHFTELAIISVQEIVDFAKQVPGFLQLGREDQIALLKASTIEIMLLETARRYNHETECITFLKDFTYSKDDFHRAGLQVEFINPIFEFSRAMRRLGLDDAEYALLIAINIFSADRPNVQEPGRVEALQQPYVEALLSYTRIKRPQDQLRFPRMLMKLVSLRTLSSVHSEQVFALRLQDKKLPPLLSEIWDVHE
Summary of the method: (§1)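 Efficacy (Emax) and inflection-point potency were scaled to reference agonist T0901317, acting on both LXR subtypes. Ligand-driven coactivator peptide recruitment was detected by TR-FRET after room-temperature incubation with terbium anti-GST antibody.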

[2] = biological target: T2, glutathione-S-transferase (GST) tagged LXRalpha LBD (ligand binding domain) (Homo sapiens, UniProt Q13133); experiment: LanthaScreen TR-FRET Liver X Receptor Coactivator Assay, co-activator recruitment to LXRalpha LBD; assay type: biochemical; conditions: for Emax: read-out: LXR alpha Activity @ max dose (%); for LXR alpha IP (nM) / EC50: potency (Inflection Point, IP), co-activator recruitment to LXRalpha LBD, in relation to T0901317; for EC50: read-out: LXR alpha IP
T2 construct: purchased Invitrogen pv4655
T2 sequence (Q13133 209-447 limits assumed): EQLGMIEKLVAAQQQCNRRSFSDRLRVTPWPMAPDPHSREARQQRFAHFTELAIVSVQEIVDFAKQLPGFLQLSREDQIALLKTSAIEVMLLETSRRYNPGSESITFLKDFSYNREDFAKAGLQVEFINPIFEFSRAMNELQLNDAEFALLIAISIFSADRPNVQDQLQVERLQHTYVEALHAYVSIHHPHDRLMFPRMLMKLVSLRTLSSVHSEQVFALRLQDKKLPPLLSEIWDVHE
Summary of the method: as §1

[3] = efficacy at max dose, in relation to reference dual agonist T0901317

Row | Emax [1, 3] [%] | EC50 [1] [nM] | Emax [2, 3] [%] | LXR alpha IP (nM) [2] | EC50 [2] [nM] | LXR beta Activity @ max dose (%) [1, 3] [%] | LXR alpha Activity @ max dose (%) [2, 3] [%] | SMILES
1 | 16 | 181 | 0 | NO IP |  |  |  | COc1cccc([C@@](N)(C(=O)N2CCC(CC3CCN(c4ccc(C(=O)N(C)C)c(Cl)c4)CC3)CC2)C(F)(F)F)c1 [Example 2-103, 4-[4-({1-[(2R)-2-amino-3,3,3-trifluoro-2-(3-methoxyphenyl)propanoyl]piperidin-4-yl}methyl)piperidin-1-yl]-2-chloro-N,N-dimethyl-benzamide]
2 | 28 | 13 | 0 | NO IP |  |  |  | COc1cccc([C@@](O)(C(=O)N2CCCC(CC3CCN(c4ccc(C(=O)N(C)C)c(Cl)c4)CC3)CC2)C(F)(F)F)c1 (stereo partly drawn) [Example 2-161, 2-chloro-N,N-dimethyl-4-[4-({1-[(2R)-3,3,3-trifluoro-2-hydroxy-2-(3-methoxy-phenyl)propanoyl]azepan-4-yl}methyl)piperidin-1-yl]benzamide]
3 | 82 | 3 | 30 |  | 70 |  |  | CN(C)C(=O)c1ccc(N2CCC(CC3CCN(C(=O)[C@](O)(c4cccc(Cl)c4)C(F)(F)F)CC3)CC2)nc1Cl [Example 7-69, 2-chloro-6-[4-({1-[(2R)-2-(3-chlorophenyl)-3,3,3-trifluoro-2-hydroxypropanoyl]piperidin-4-yl}methyl)piperidin-1-yl]-N,N-dimethylpyridine-3-carboxamide]
4 | 60 | 22 | 12 | NO IP |  |  |  | CCc1cccc([C@@](O)(C(=O)N2CCC(CC3CCN(c4ccc(C(=O)NC)c(Cl)c4)CC3)CC2)C(F)(F)F)c1 [Example 7-120, 2-chloro-4-[4-({1-[(2R)-2-(3-ethylphenyl)-3,3,3-trifluoro-2-hydroxypropanoyl]piperidin-4-yl}methyl)piperidin-1-yl]-N-methylbenzamide]
5 | 89 | 28 | 26 |  | 695 |  |  | CN(C)C(=O)c1ccc(N2CCC(OC3CCN(C(=O)C(O)(c4cccc(C(F)(F)F)c4)C(F)(F)F)CC3)CC2)cc1Cl (stereo not shown) [Example 2-25, 2-chloro-N,N-dimethyl-4-{4-[(1-{3,3,3-trifluoro-2-hydroxy-2-[3-(trifluoromethyl)phenyl]propanoyl}piperidin-4-yl)oxy]piperidin-1-yl}benzamide]
6 | 93 | 47 | 34 |  | 2940 |  |  | COc1cccc([C@@](O)(C(=O)N2CCC(OC3CCN(c4ccc(C(=O)N(C)C)c(OC)n4)CC3)CC2)C(F)(F)F)c1 [Example 7-154, 2-methoxy-N,N-dimethyl-6-[4-({1-[(2R)-3,3,3-trifluoro-2-hydroxy-2-(3-methoxyphenyl)propanoyl]piperidin-4-yl}oxy)piperidin-1-yl]pyridine-3-carboxamide]
7 | 87 | 39 | 38 |  | 444 |  |  | CS(=O)(=O)c1cccc(N2CCC(CC3CCN(C(=O)[C@](O)(c4ccccc4)C(F)(F)F)CC3)CC2)c1 [Example 2-74, (2R)-1,1,1-trifluoro-3-[4-({1-[3-(methylsulfonyl)phenyl]piperidin-4-yl}methyl)piperidin-1-yl]-3-oxo-2-phenylpropan-2-ol]
8 | 50 | 5 | 0 | NO IP |  |  |  | CN(C)C(=O)c1ccc(N2CCC(CC3(C)CCN(C(=O)[C@](O)(c4cc(Cl)cc(Cl)c4)C(F)(F)F)CC3)CC2)cc1Cl [Example 2-53, 2-chloro-4-[4-({1-[(2R)-2-(3,5-dichloro-phenyl)-3,3,3-trifluoro-2-hydroxy-propanoyl]-4-methylpiperidin-4-yl}methyl)piperidin-1-yl]-N,N-dimethyl-benzamide]
9 | 80 | 19 | 24 |  | 461 |  |  | CN(C)C(=O)c1ncc(N2CCC(CC3CCN(C(=O)[C@](O)(c4ccccc4)C(F)(F)F)CC3)CC2)cc1Cl [Example 2-4, 3-chloro-N,N-dimethyl-5-[4-({1-[(2R)-3,3,3-trifluoro-2-hydroxy-2-phenylpropanoyl]piperidin-4-yl}methyl)piperidin-1-yl] pyridine-2-carboxamide]
10 | 107 | 20 | 61 |  | 215 |  |  | CNC(=O)c1ccc(N2CCC(CC3CCN(C(=O)C(O)(c4cccc(C#N)c4)C(F)(F)F)CC3)CC2)nc1Cl (stereo not shown) [Example 7-144, 2-chloro-6-[4-({1-[2-(3-cyanophenyl)-3,3,3-trifluoro-2-hydroxypropanoyl]piperidin-4-yl}methyl)piperidin-1-yl]-N-methylpyridine-3-carboxamide]
11 | 128 | 47 | 47 |  | 922 |  |  | CN(C)C(=O)c1ccc(N2CCC(CC3CCN(C(=O)[C@@](O)(c4cccc(F)c4)C(F)(F)F)CC3)CC2)nc1Cl [Example 7-73, 2-chloro-N,N-dimethyl-6-[4-({1-[(2S)-3,3,3-trifluoro-2-(3-fluorophenyl)-2-hydroxypropanoyl]piperidin-4-yl}methyl)piperidin-1-yl]pyridine-3-carboxamide]
12 | 55 | 78 | 14 | NO IP |  |  |  | CN(C)C(=O)c1ccc(N2CCC(CC3CCN(C(=O)[C@](O)(c4cccc(OC(F)(F)F)c4)C(F)(F)F)CC3)CC2)cc1 [Example 2-144, N,N-dimethyl-4-{4-[(1-{(2R)-3,3,3-trifluoro-2-hydroxy-2-[3-(trifluoro-methoxy)phenyl]propanoyl}piperidin-4-yl)methyl]piperidin-1-yl}benzamide]
13 | 60 | 10 | 12 | NO IP |  |  |  | CNC(=O)c1ccc(N2CCC(CC3CCN(C(=O)[C@](O)(c4cccc(OC)c4)C(F)(F)F)CC3)CC2)cc1Cl [Example 7-33, 2-chloro-N-methyl-4-[4-({1-[(2R)-3,3,3-trifluoro-2-hydroxy-2-(3-methoxyphenyl)propanoyl]piperidin-4-yl}methyl)piperidin-1-yl]benzamide]
14 | 79 | 21 | 22 |  | 1510 |  |  | CN(C)C(=O)c1ccc(N2CCC(CC3CN(C(=O)[C@](O)(c4cccc(OC(F)(F)F)c4)C(F)(F)F)C3)CC2)cc1Cl [Example 2-63, 2-chloro-N,N-dimethyl-4-{4-[(1-{(2R)-3,3,3-trifluoro-2-hydroxy-2-[3-(trifluoro-methoxy)phenyl]propanoyl}azetidin-3-yl)methyl]piperidin-1-yl}benzamide]
15 | 73 | 19 | 8 | NO IP |  |  |  | COc1cccc([C@@](O)(C(=O)N2CCC(CC3CCN(c4ccc(C(=O)N(C)C)c(C5CC5)n4)CC3)CC2)C(F)(F)F)c1 [Example 7-11, 2-cyclopropyl-N,N-dimethyl-6-[4-({1-[(2R)-3,3,3-trifluoro-2-hydroxy-2-(3-methoxyphenyl)propanoyl]piperidin-4-yl}methyl)piperidin-1-yl]pyridine-3-carboxamide]
16 |  |  |  |  | 177 | 119 | 56 | CN(C)C(=O)c1ccc(N2CCC(CC3CCN(C(=O)[C@](O)(c4ccccc4)C(F)(F)C(F)(F)F)CC3)CC2)cc1Cl [Example 2-13, 2-chloro-N,N-dimethyl-4-[4-({1-[(2R)-3,3,4,4,4-pentafluoro-2-hydroxy-2-phenylbutanoyl]piperidin-4-yl}methyl)piperidin-1-yl]benzamide]
17 | 115 | 125 | 35 |  | 2260 |  |  | CNC(=O)c1ccc(N2CCC(OC3CCN(C(=O)[C@](O)(c4ccccc4)C(F)(F)F)CC3)CC2)cc1Cl [Example 7-26, 2-chloro-N-methyl-4-[4-({1-[(2R)-3,3,3-trifluoro-2-hydroxy-2-phenylpropanoyl]piperidin-4-yl}oxy)piperidin-1-yl]benzamide]
